Laboratory results reported in ChEMBL document CHEMBL1201862, “PubChem BioAssay data set” (2004).
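48-hour exposure; five concentrations; linearly interpolated endpoints. Abbreviation: GI50, concentration required for 50% inhibition of growth.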 Active and inactive are the calls of the source. No stated cut-off is given here; in the data, active = GI50 up to about 1.1 µM and inactive = higher.

Assays:
Test in all cases: NCI-60 cell line screen, 48 h
[1] = system: UO-31
[2] = system: 786-0
[3] = system: HOP-92
[4] = system: SNB-19
[5] = system: HT-29
[6] = system: HCT-116
[7] = system: MDA-MB-435
[8] = system: IGROV-1
[9] = system: OVCAR-3
[10] = system: SR
[11] = system: BT-549
[12] = system: Hs-578T
[13] = system: PC-3
[14] = system: Malme-3M
[15] = system: SF-295
[16] = system: SW-620
[17] = system: COLO 205
[18] = system: HCC 2998
[19] = system: SK-MEL-28

Row | Compound | GI50 [1] | GI50 [2] | GI50 [3] | GI50 [4] | GI50 [5] | GI50 [6] | GI50 [7] | GI50 [8] | GI50 [9] | GI50 [10] | GI50 [11] | GI50 [12] | GI50 [13] | GI50 [14] | GI50 [15] | GI50 [16] | GI50 [17] | GI50 [18] | GI50 [19]
1 | CCCCc1c2c(nc3c1CCCC3O)CCCC2 (stereo not given) | > 100 µM (inactive) | > 100 µM (inactive) | 79.4 µM (inactive) | > 100 µM (inactive) | 85.3 µM (inactive) | > 100 µM (inactive) | > 100 µM (inactive) | > 100 µM (inactive) | 71.8 µM (inactive) | 5.11 µM (inactive) | > 100 µM (inactive) | > 100 µM (inactive) | > 100 µM (inactive) | > 100 µM (inactive) | > 100 µM (inactive) | > 100 µM (inactive) | > 100 µM (inactive) | > 100 µM (inactive) | 
2 | O=C(NC1=C(Cl)C(=O)c2ccccc2C1=O)c1ccc(F)cc1 |  | 10.8 µM (inactive) | 1.61 µM (inactive) | 5.18 µM (inactive) | 3.49 µM (inactive) | 0.455 µM (active) | 4.45 µM (inactive) | 1.7 µM (inactive) | 2.53 µM (inactive) | 3.66 µM (inactive) | 3.46 µM (inactive) | 8.91 µM (inactive) | 1.13 µM (inactive) | 1.52 µM (inactive) | 4.06 µM (inactive) | 0.776 µM (active) | 2.44 µM (inactive) | 3.48 µM (inactive) | 4.86 µM (inactive)
3 | O=C(C/N=C(\CN(c1ccccc1)c1ccccc1)Oc1c([N+](=O)[O-])cc([N+](=O)[O-])cc1[N+](=O)[O-])N1CCNCC1 |  | > 100 µM (inactive) | 67.5 µM (inactive) | > 100 µM (inactive) | > 100 µM (inactive) | > 100 µM (inactive) | > 100 µM (inactive) | 56.8 µM (inactive) | > 100 µM (inactive) | > 100 µM (inactive) | > 100 µM (inactive) | 25.4 µM (inactive) | > 100 µM (inactive) | > 100 µM (inactive) | > 100 µM (inactive) | > 100 µM (inactive) | > 100 µM (inactive) | > 100 µM (inactive) | > 100 µM (inactive)
4 | Cc1ccc(N2CCc3c(C)c(C#N)c4nc5ccccc5n4c32)cc1 | > 100 µM (inactive) | 12.1 µM (inactive) | 10.4 µM (inactive) | 37.4 µM (inactive) | > 100 µM (inactive) | > 100 µM (inactive) | 6.27 µM (inactive) | 68.1 µM (inactive) | > 100 µM (inactive) | 2.94 µM (inactive) | > 100 µM (inactive) | 16 µM (inactive) | > 100 µM (inactive) | > 100 µM (inactive) | 41.6 µM (inactive) | 85.9 µM (inactive) | 90.6 µM (inactive) | > 100 µM (inactive) | > 100 µM (inactive)
5 | CCCCCC(/C=N/NC(N)=S)C(O)(C(F)(F)F)C(F)(F)F (stereo not given) |  | > 10 µM (inactive) | > 10 µM (inactive) | > 10 µM (inactive) | > 10 µM (inactive) | > 10 µM (inactive) | > 10 µM (inactive) | > 10 µM (inactive) | > 10 µM (inactive) | > 10 µM (inactive) | > 10 µM (inactive) | > 10 µM (inactive) | > 10 µM (inactive) | > 10 µM (inactive) | > 10 µM (inactive) | > 10 µM (inactive) | > 10 µM (inactive) | > 10 µM (inactive) | > 10 µM (inactive)
6 | O=C(O)CCNc1[nH]cnc2ncnc1-2 | > 100 µM (inactive) | > 100 µM (inactive) | > 100 µM (inactive) | > 100 µM (inactive) | > 100 µM (inactive) | > 100 µM (inactive) | > 100 µM (inactive) | > 100 µM (inactive) | 0.621 µM (active) | > 100 µM (inactive) | > 100 µM (inactive) | > 100 µM (inactive) | > 100 µM (inactive) | > 100 µM (inactive) | > 100 µM (inactive) | > 100 µM (inactive) | > 100 µM (inactive) | > 100 µM (inactive) | > 100 µM (inactive)
